{"source": "patent US10568976B2", "about": "“3,6,9, 15-tetraaza-bicyclo [9.3.1 ]pentadeca-1(14), 11(15), 12-triene based compounds and their application as ligands of essential metal ion based MRI and 52MN based PET contrast agents” (DEBRECENI EGYETEM, priority 2015, dated 2020)", "key": {"[1]": {"details": "literature value, 'under the same conditions'; cited from earlier work"}, "[2]": {"details": "cited from earlier work"}, "[3]": {"assay": "Stability constants of Mn(II) complexes and calculated pMn (equilibrium study)", "type": "physicochemical", "details": "25° C., 0.15M NaCl; for pMn: calculated from equilibrium constants at pH = 7.4 and cMn = cL = 10^−5 M", "description": "(§1) During the physico-chemical tests of tPC2AM^Pyp and tPC2AM^Pro compounds synthesized according to Example 1 and 2, their protonation constant, as well as equilibrium behaviour and kinetic inertism of their Mn(II) complexes was studied in detail, and the characteristic relaxivity values of the complexes were determined in the presence and absence of HSA (Human Serum Albumin), at 25 and 37° C. and physiological pH. All studies were performed in the presence of 0.15 M NaCl, the same concentration as that of the electrolyte under physiological conditions.\n(§2) The results of equilibrium study are summarized in Table 1, in addition to the protonation constants, total basicity of ligands and stability constants of their Mn(II) complexes, the pMn value calculated for complexes are also represented in the table.\nBased on the pMn values represented in Table 1 (calculated using the equilibrium constants at pH=7.4 and cMn=cL=10^−5 M), it can be concluded that the studied Mn(II) complexes are formed in 100% at physiological pH, which is an essential aspect of the practical use."}, "[4]": {"assay": "Protonation constants of the ligands (equilibrium study)", "type": "physicochemical", "details": "25° C., 0.15M NaCl", "description": "as §1, §2"}}, "data": [{"smiles": "CNC[C@H](O)[C@@H](O)[C@H](O)[C@H](O)CO.O=C([O-])CN1CCN(CC(=O)[O-])CCN(CC(=O)O)CCN(CC(=O)[O-])CC1.[Gd+3]", "note": "[DOTAREM]", "values": [{"measurement": "r1 relaxivity", "setting": "[1]", "result": 3.83, "unit": "mM⁻¹ s⁻¹"}]}, {"smiles": "CNC[C@H](O)[C@@H](O)[C@H](O)[C@H](O)CO.CNC[C@H](O)[C@@H](O)[C@H](O)[C@H](O)CO.O=C([O-])CN(CCN(CC(=O)[O-])CC(=O)O)CCN(CC(=O)[O-])CC(=O)O.[Gd+3]", "note": "[MAGNEVIST]", "values": [{"measurement": "Gd(III) ion released, calculated on the basis of experiments at 25° C.", "setting": "[2]; 25° C.", "result": 0.5, "unit": "%"}, {"measurement": "Gd(III) ion released during in vivo dissociation", "setting": "[2]; 37° C.", "result": 2.2, "unit": "%"}, {"measurement": "r1 relaxivity", "setting": "[1]", "result": 4.02, "unit": "mM⁻¹ s⁻¹"}]}, {"smiles": "O=C(O)C1CCCN1C(=O)CN1CCNCCN(CC(=O)N2CCCC2C(=O)O)Cc2cccc(n2)C1", "note": "(stereo not shown) [tPC2AM^Pro]", "values": [{"measurement": "logKMnL (stability constant of Mn(II) complex)", "setting": "[3]", "result": "13.77(3)"}, {"measurement": "pMn", "setting": "[3]", "result": 7.85}, {"measurement": "logK1 (protonation constant)", "setting": "[4]", "result": "9.80(2)"}, {"measurement": "logK2 (protonation constant)", "setting": "[4]", "result": "7.96(4)"}, {"measurement": "logK3 (protonation constant)", "setting": "[4]", "result": "3.65(5)"}, {"measurement": "logK4 (protonation constant)", "setting": "[4]", "result": "2.26(4)"}, {"measurement": "ΣlogKi^H (total basicity)", "setting": "[4]", "result": 23.67}]}, {"smiles": "O=C(CN1CCNCCN(CC(=O)N2CCCCC2)Cc2cccc(n2)C1)N1CCCCC1", "note": "[tPC2AM^Pyp]", "values": [{"measurement": "logKMnL (stability constant of Mn(II) complex)", "setting": "[3]", "result": "13.09(2)"}, {"measurement": "pMn", "setting": "[3]", "result": 7.09}, {"measurement": "logK1 (protonation constant)", "setting": "[4]", "result": "11.31(1)"}, {"measurement": "logK2 (protonation constant)", "setting": "[4]", "result": "3.94(3)"}, {"measurement": "ΣlogKi^H (total basicity)", "setting": "[4]", "result": 15.26}]}]}
